What was measured:
[1] = target: T1, DYRK1B (Homo sapiens, UniProt Q9Y463); test: Kinase TR-FRET assay, DYRK1B; type: biochemical; details: full-length human kinase, 10 μM ATP
T1 construct: full-length human kinases from Carna Biosciences; purchased Carna Biosciences 04-131
Method in brief: (§1)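 Compounds tested at 0.1 nM to 30 μM in reaction buffer; reaction stopped with 10 mM EDTA. Phosphorylated MBP detected with 1 nM Europium-labelled anti-phospho-Thr232 antibody by TR-FRET.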

[2] = target: T2, DYRK1A (Homo sapiens, UniProt Q13627); test: Kinase TR-FRET assay, DYRK1A; type: biochemical; set-up: full-length, wild-type human DYRK1A (NM_001396) with an HA tag; expressed in transfected cells; host or cells: human U2-OS osteosarcoma cells, transient transfection of a pcDNA3.1 plasmid; details: full-length human kinase, 10 μM ATP
Method in brief: as §1

[3] = target: T2, DYRK1A; test: Cellular DYRK1 autophosphorylation assay in U2-OS cells; type: cell-based; set-up: full-length, wild-type human DYRK1A (NM_001396) with an HA tag; expressed in transfected cells; host or cells: human U2-OS osteosarcoma cells, transient transfection of a pcDNA3.1 plasmid; details: U2-OS cells transfected with HA-tagged human DYRK1A, 5 hours exposure; read-out: IC50 (μM) P-Ser520-Dyrk1A -Cell assay
Method in brief: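 U2-OS cells treated with a compound concentration range for 5 h. Phospho-Ser520-DYRK1A measured by western blot densitometry or Mesoscale ELISA. IC50 from dose-response curves; for blots, ratio of phospho-Ser520 to total DYRK1A signal.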

[4] = target: T3, CLK1 (Homo sapiens, UniProt P49759); test: Kinase TR-FRET assay, CLK1; type: biochemical; details: full-length human kinase, 10 μM ATP
T3 construct: full-length human kinases from Carna Biosciences; purchased Carna Biosciences 04-126
Description: Inhibition of the enzymatic activity of human kinases was evaluated in a Time-Resolved Fluorescence Resonance Energy Transfer (TR-FRET) assay in 384-well reaction plates. […] Test compounds of the invention were added in reaction buffer at a range of concentrations from 0.1 nM to 30 μM. Following addition of EDTA (Sigma E7889, 10 mM) to stop the reaction, Europium-labelled mouse monoclonal antibody recognizing phospho-Thr232 in MBP (Perkin Elmer TRF0201, 1 nM) was added.

[5] = target: T4, His-TEV-DYRK1A Kinase domain (aa127-485) (Homo sapiens, UniProt Q13627); test: Kinase ADP assay (ADP Hunter), DYRK1A kinase domain; type: biochemical; details: 20 μM ATP
T4 construct: His-TEV-DYRK1A Kinase domain (aa127-485); His tag (N); TEV protease cleavage site (N)
Method in brief: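 Compounds incubated 10 min at 30 °C with 20 nM enzyme, 40 μM peptide substrate and 20 μM ATP in pH 7.4 Hepes buffer with 10 mM MgCl2. ADP formed detected by ADP Hunter Plus reagents after 20 min at 30 °C, fluorescence read at 590 nm.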

[6] = target: T5, CDK9 (Homo sapiens, UniProt P50750); test: Kinase TR-FRET assay, CDK9; type: biochemical; details: full-length human kinase, 10 μM ATP
T5 construct: full-length human kinases from Carna Biosciences; purchased Carna Biosciences 04-110
Method in brief: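 Full-length human CDK9 (0.9 ng/μl) incubated 100 min at room temperature with 10 μM ATP, 100 nM ULight-MBP peptide and compound (0.1 nM–30 μM) in 50 mM HEPES pH 7.4, 1 mM EGTA, 10 mM MgCl2, 2 mM DTT, 0.01% Tween20. Stopped with 10 mM EDTA, then 1 nM Eu-anti-phospho-Thr232 MBP antibody added for 1 h. TR-FRET read at 665/620 nm with 340 nm excitation.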

T1 sequence (Q9Y463 whole entry): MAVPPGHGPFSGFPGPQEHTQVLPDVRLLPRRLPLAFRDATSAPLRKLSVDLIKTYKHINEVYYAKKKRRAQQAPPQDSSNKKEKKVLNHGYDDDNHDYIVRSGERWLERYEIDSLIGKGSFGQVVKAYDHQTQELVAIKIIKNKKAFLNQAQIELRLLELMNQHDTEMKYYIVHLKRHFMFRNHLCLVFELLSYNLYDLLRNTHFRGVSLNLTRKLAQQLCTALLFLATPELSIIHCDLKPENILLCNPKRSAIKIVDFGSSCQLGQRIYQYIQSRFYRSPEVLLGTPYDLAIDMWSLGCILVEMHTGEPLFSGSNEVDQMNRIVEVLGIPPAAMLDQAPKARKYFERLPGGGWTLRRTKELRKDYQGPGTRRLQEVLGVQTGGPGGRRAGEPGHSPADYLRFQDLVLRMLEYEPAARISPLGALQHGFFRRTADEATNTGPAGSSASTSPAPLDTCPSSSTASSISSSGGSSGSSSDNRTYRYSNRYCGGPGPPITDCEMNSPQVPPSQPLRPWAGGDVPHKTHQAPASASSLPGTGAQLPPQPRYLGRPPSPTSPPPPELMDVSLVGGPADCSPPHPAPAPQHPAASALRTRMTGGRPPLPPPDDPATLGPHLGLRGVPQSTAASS
T5 sequence (P50750 whole entry): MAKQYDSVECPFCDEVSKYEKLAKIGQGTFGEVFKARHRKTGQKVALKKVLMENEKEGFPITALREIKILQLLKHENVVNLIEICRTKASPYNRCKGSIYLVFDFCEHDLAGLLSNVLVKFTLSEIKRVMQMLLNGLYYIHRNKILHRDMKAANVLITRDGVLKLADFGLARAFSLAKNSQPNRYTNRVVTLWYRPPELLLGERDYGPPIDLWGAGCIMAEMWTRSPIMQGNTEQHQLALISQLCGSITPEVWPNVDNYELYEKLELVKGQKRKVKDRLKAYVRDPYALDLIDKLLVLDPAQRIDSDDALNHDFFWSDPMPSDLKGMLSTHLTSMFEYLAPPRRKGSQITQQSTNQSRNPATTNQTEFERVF
T5 sequence (O60563 whole entry partner): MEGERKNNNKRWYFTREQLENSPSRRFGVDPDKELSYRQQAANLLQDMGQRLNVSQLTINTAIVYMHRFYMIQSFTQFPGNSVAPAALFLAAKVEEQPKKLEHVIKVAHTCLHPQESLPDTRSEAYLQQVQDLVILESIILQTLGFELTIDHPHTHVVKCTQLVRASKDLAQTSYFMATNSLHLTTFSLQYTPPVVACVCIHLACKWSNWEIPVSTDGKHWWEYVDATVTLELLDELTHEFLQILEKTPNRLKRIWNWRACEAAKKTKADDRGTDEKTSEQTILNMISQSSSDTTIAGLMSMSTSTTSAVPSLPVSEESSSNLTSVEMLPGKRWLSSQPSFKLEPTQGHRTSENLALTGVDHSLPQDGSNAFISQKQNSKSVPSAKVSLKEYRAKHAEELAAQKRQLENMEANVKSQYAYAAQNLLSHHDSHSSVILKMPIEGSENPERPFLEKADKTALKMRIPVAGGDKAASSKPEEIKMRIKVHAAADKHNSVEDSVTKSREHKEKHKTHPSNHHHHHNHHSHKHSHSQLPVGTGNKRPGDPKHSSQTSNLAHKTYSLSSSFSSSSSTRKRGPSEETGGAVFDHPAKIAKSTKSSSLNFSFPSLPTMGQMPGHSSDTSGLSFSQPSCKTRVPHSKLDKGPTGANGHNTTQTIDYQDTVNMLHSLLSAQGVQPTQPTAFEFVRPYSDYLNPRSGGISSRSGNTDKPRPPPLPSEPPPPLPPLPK
T3 sequence (P49759 1-526 isoform P49759-3): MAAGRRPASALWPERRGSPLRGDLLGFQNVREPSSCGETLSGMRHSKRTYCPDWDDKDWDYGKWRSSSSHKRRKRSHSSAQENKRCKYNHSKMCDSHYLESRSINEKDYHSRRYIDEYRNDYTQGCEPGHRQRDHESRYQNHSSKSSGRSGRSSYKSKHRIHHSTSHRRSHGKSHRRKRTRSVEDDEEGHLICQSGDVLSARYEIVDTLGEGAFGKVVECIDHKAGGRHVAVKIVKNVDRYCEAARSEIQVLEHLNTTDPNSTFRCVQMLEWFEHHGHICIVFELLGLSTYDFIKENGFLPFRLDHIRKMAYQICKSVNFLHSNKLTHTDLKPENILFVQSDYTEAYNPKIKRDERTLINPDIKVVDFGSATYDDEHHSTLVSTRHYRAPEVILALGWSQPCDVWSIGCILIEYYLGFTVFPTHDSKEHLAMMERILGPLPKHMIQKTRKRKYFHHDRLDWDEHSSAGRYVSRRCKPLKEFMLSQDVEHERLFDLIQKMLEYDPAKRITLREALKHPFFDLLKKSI

SMILES | IC50 [1] [µM] | IC50 [2] [µM] | IC50 [3] [µM] | IC50 [4] [µM] | IC50 [5] [µM] | IC50 [6] [µM]
Cc1nc2ccc(-c3cc(N)nc(N)c3)nc2n1C[C@H](C)Oc1ccccc1 (single isomer, unassigned) [Example 107] | 0.007 | 0.008 | 0.111 | 0.037 | 0.012 | > 3
Cc1nc2ccc(-c3cc(N)nc(N)c3)nc2n1C[C@H]1C[C@@H]1c1ccccc1 (single isomer, unassigned) [Example 109] | 0.015 | 0.01 | 0.22 | 0.025 | 0.03 | > 3
Cc1nc2ccc(-c3cc(N)nc(N)c3)nc2n1CC1Cc2ccccc21 (single isomer, unassigned) [Example 112, 4-[3-(bicyclo[4.2.0]octa-1,3,5-trien-7-ylmethyl)-2-methyl-3H-imidazo[4,5-b]pyridin-5-yl]pyridine-2,6-diamine] | 0.014 | 0.006 | 0.09 | 0.025 | 0.005 | 2.62
Cc1nc2ccc(-c3cc(N)nc(N)c3)nc2n1C[C@H](C)Oc1ccccn1 (single isomer, unassigned) [Example 174] | 0.013 | 0.016 | – | 0.083 | 0.074 | > 3
Cc1nc2ccc(-c3cc(N)nc(N)c3)nc2n1C[C@@H](C)Oc1ccccn1 (single isomer, unassigned) [Example 175] | 0.016 | 0.007 | 0.131 | 0.04 | 0.02 | > 3
Cc1nc2ccc(-c3cc(N)nc(N)c3)nc2n1C[C@@H](C)Oc1cccc(Cl)n1 (single isomer, unassigned) [Example 177] | 0.005 | 0.005 | 0.042 | 0.017 | 0.014 | 0.554
Cc1nc2ccc(-c3cc(N)nc(N)c3)nc2n1C[C@@H](C)Oc1cccc(F)n1 (single isomer, unassigned) [Example 189] | 0.007 | 0.007 | 0.026 | 0.017 | 0.013 | 0.339
C=CCCn1c(C)nc2ccc(-c3cc(N)nc(N)c3)nc21 [Example 14, 4-[3-(but-3-en-1-yl)-2-methyl-3H-imidazo[4,5-b]pyridin-5-yl]pyridine-2,6-diamine] | 0.001 | 0.002 | 0.05 | 0.016 | 0.008 | 1.95
Cc1nc2ccc(-c3cc(N)nc(N)c3)nc2n1C1CCC1 [Example 23, 4-(3-cyclobutyl-2-methyl-3H-imidazo[4,5-b]pyridin-5-yl)pyridine-2,6-diamine] | 0.008 | 0.002 | 0.017 | 0.012 | 0.006 | 0.57
Cc1nc2ccc(-c3cc(N)nc(N)c3)nc2n1C1CCOCC1 [Example 49, 4-[2-methyl-3-(tetrahydro-2H-pyran-4-yl)-3H-imidazo[4,5-b]pyridin-5-yl]pyridine-2,6-diamine] | 0.017 | 0.003 | 0.13 | 0.017 | 0.011 | 0.979
C=CCn1c(C)nc2ccc(-c3cc(N)nc(N)c3)nc21 [Example 51, 4-[2-methyl-3-(prop-2-en-1-yl)-3H-imidazo[4,5-b]pyridin-5-yl]pyridine-2,6-diamine] | 0.001 | 0.006 | 0.038 | 0.029 | 0.007 | 4.37
CCCCCn1c(C)nc2ccc(-c3cc(N)nc(N)c3)nc21 [Example 65, 4-(2-methyl-3-pentyl-3H-imidazo[4,5-b]pyridin-5-yl)pyridine-2,6-diamine] | 0.005 | 0.001 | 0.022 | 0.018 | 0.006 | > 10
COc1cc(Cn2c(C)nc3ccc(-c4cc(N)nc(N)c4)nc32)ccn1 [Example 72, 4-{3-[(2-methoxypyridin-4-yl)methyl]-2-methyl-3H-imidazo[4,5-b]pyridin-5-yl}pyridine-2,6-diamine] | 0.014 | 0.01 | 0.184 | 0.09 | 0.015 | > 10
Cc1nc2ccc(-c3cc(N)nc(N)c3)nc2n1CCc1ccc2c(c1)OCO2 [Example 73, 4-(3-[2-(1,3-benzodioxol-5-yl)ethyl]-2-methyl-3H-imidazo[4,5-b]pyridin-5-yl)pyridine-2,6-diamine] | 0.008 | 0.004 | 0.065 | 0.019 | 0.009 | 4.66
Cc1nc2ccc(-c3cc(N)nc(N)c3)nc2n1CC1CC1(Cl)Cl (stereo not drawn) [Example 74, 4-{3-[(2,2-dichlorocyclopropyl)methyl]-2-methyl-3H-imidazo[4,5-b]pyridin-5-yl}pyridine-2,6-diamine] | 0.01 | 0.006 | 0.092 | 0.021 | 0.014 | 0.476
Cc1nc2ccc(-c3cc(N)nc(N)c3)nc2n1CCC(C)C [Example 75, 4-[2-methyl-3-(3-methylbutyl)-3H-imidazo[4,5-b]pyridin-5-yl]pyridine-2,6-diamine] | 0.006 | 0.003 | 0.035 | 0.019 | 0.012 | 0.843
Cc1nc2ccc(-c3cc(N)nc(N)c3)nc2n1CC1CCCC1 [Example 89, 4-[3-(cyclopentylmethyl)-2-methyl-3H-imidazo[4,5-b]pyridin-5-yl]pyridine-2,6-diamine] | 0.009 | 0.004 | 0.068 | 0.024 | 0.014 | 1.46
Cc1nc2ccc(-c3cc(N)nc(N)c3)nc2n1CCc1cccc(C(F)(F)F)c1 [Example 91, 4-(2-methyl-3-{2-[3-(trifluoromethyl)phenyl]ethyl}-3H-imidazo[4,5-b]pyridin-5-yl)pyridine-2,6-diamine] | 0.008 | 0.004 | 0.062 | 0.016 | 0.013 | 2.92
Cc1nc2ccc(-c3cc(N)nc(N)c3)nc2n1CCC1CCCC1 [Example 92, 4-[3-(2-cyclopentylethyl)-2-methyl-3H-imidazo[4,5-b]pyridin-5-yl]pyridine-2,6-diamine] | 0.007 | 0.002 | 0.058 | 0.017 | 0.006 | 0.564
CCCCCCn1c(C)nc2ccc(-c3cc(N)nc(N)c3)nc21 [Example 94, 4-(3-hexyl-2-methyl-3H-imidazo[4,5-b]pyridin-5-yl)pyridine-2,6-diamine] | 0.007 | 0.003 | 0.017 | 0.016 | 0.005 | 1.08
CCCCn1c(CCC)nc2ccc(-c3cc(N)nc(N)c3)nc21 [Example 161, 4-(3-butyl-2-propyl-3H-imidazo[4,5-b]pyridin-5-yl)pyridine-2,6-diamine] | 0.005 | – | 0.143 | 0.218 | 0.02 | > 10
Cc1nc2ccc(-c3cc(N)nc(N)c3)nc2n1CCOc1cccc(Br)n1 [Example 168, 4-(3-{2-[(6-bromopyridin-2-yl)oxy]ethyl}-2-methyl-3H-imidazo[4,5-b]pyridin-5-yl)pyridine-2,6-diamine] | 0.006 | 0.002 | 0.032 | 0.015 | 0.011 | –

— patent US20180273528A1 (LES LABORATOIRES SERVIER, priority 2015, published 2018)
